Test results: patent US7226923B2, “Phthalazinone derivatives” (Hoffman-La Roche Inc., priority 2004, dated 2007)
pIC50: −log10 of the molar value.

system: HCT 116 cells; experiment: CellTiter-Glo assay in HCT 116 cells; type: cell-based, human; conditions: Homo sapiens, HCT-116, 120 h, 5 days incubation, 30 μM to 0.0015 μM
Source text: CellTiter-Glo™ Assay in HCT 116 Cells
The CellTiter-Glo™ Luminescent Cell Viability Assay (Promega) is a homogeneous method of determining the number of viable cells in culture based on quantitation of the ATP present, which signals the presence of metabolically active cells.
HCT 116 cells (human colon carcinoma, ATCC-No. CCl-247) were cultivated in RPMI 1640 medium with GlutaMAX™ I (Invitrogen, Cat-No. 61870-010), 2.5% Fetal Calf Serum (FCS, Sigma Cat-No. F4135 (FBS)); 100 Units/ml penicillin/100 μg/ml streptomycin (=Pen/Strep from Invitrogen Cat. No. 15140). For the assay the cells were seeded in 384 well plates, 1000 cells per well, in the same medium. The next day the test compounds were added in various concentrations ranging from 30 μM to 0.0015 μM (10 concentrations, 1:3 diluted). After 5 days the CellTiter-Glo™ assay was done according to the instructions of the manufacturer (CellTiter-Glo™ Luminescent Cell Viability Assay, from Promega). In brief: the cell-plate was equilibrated to room temperature for approximately 30 minutes and than the CellTiter-Glo™ reagent was added. The contents were carefully mixed for 15 minutes to induce cell lysis. After 45 minutes the luminescent signal was measured in Victor 2, (scanning multiwell spectrophotometer, Wallac).
1st. Day: • Medium: RPMI 1640 with GlutaMAX™ I (Invitrogen, Cat-Nr. 61870), 5% FCS (Sigma Cat.-No. F4135), Pen/Strep (Invitrogen, Cat No. 15140). • HCT116 (ATCC-No. CCl-247): 1000 cells in 60 μl per well of 384 well plate (Greiner 781098, μClear-plate white) • After seeding incubate plates 24 h at 37° C., 5% CO2
2nd. Day: Induction (Treatment with Compounds, 10 Concentrations):
In order to achieve a final concentration of 30 μM as highest concentration 3.5 μl of 10 mM compound stock solution were added directly to 163 μl media. Then step e) of the dilution procedure described below, was followed.

Row | pIC50 | SMILES
1 | 5.00 to 7.00 | Cc1cc(Nc2nn(C(C)C)c(=O)c3ccc(N4CCOCC4)cc23)n[nH]1 [Example F-2, 2-Isopropyl-4-(5-methyl-1H-pyrazol-3-ylamino)-6-morpholino-2H-phthalazin-1-one]

molecular target: T1, Aurora A (Homo sapiens, UniProt O14965); experiment: IC50 determination for inhibitors of Aurora A (96 MTP-ELISA); type: biochemical; conditions: His4-tagged full-length Aurora A 250 ng/ml, PKB-GSK2 200 nM, ATP 4 μM, 90 min at room temperature, read-out: IC50 Aurora A kinase inhibition
T1 construct: C-terminally Histidine4 (His4)-tagged Aurora A full-length protein
T1 sequence (O14965 1-403): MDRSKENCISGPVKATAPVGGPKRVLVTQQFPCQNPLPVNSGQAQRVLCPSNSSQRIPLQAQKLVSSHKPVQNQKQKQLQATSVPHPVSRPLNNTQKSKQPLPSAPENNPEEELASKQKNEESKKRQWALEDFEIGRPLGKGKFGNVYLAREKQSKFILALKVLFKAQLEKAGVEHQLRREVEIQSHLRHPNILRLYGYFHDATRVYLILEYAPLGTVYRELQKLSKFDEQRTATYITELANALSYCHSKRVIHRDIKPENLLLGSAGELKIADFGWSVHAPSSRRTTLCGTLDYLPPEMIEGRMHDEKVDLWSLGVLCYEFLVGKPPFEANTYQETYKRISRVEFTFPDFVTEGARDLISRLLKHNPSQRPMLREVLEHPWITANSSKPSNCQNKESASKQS
Protocol: IC50 Determination for Inhibitors of Aurora A
• Aurora A is a serine threonine kinase involved in spindle assembly and chromosome segregation.
The assay is a typically ELISA-type assay where biotinylated substrate (PKB-GSK2) is phosphorylated. Phosphorylation is detected by peroxidase (POD) labelled polyclonal antibody (PAK<M-Ig>S-IgG-POD) and phosphopeptide monoclonal antibody (Mab) (MAK<P-GSK>M-27E5-IgG). The assay is validated for IC50-determination.
Method • This assay is performed in 96-well format for IC50 determination with 5 samples (each with 8 concentrations by twofold testing), 100 μl incubation volume and the following plate layout: […]

Row | pIC50 | SMILES
2 | 7.00 to 9.00 | Cc1cc(Nc2nn(C(C)C)c(=O)c3cc(NCCN4CCOCC4)ccc23)n[nH]1 [Example I-11, 2-Isopropyl-4-(5-methyl-1H-pyrazol-3-ylamino)-7-(2-morpholin-4-yl-ethylamino)-2H-phthalazin-1-one]
3 | 7.00 to 9.00 | Cc1cc(Nc2nn(Cc3ccc(S(C)(=O)=O)cc3)c(=O)c3ccccc23)[nH]n1 [Example A-14, 2-(4-Methanesulfonyl-benzyl)-4-(5-methyl-2H-pyrazol-3-ylamino)-2H-phthalazin-1-one]
4 | 6.26 | CC(=O)Nc1ccc(Cn2nc(Nc3cc[nH]n3)c3ccccc3c2=O)cc1 [Example D-2, N-{4-[1-Oxo-4-(1H-pyrazol-3-ylamino)-1H-phthalazin-2-ylmethyl]-phenyl}-acetamide]
5 | 7.00 to 9.00 | COc1ccc(Cn2nc(Nc3cc(C)[nH]n3)c3ccccc3c2=O)cc1 [Example A-11, 2-(4-Methoxy-benzyl)-4-(5-methyl-1H-pyrazol-3-ylamino)-2H-phthalazin-1-one]
6 | 7.00 to 9.00 | COc1ccc(C(=O)Cn2nc(Nc3cc(C)[nH]n3)c3ccccc3c2=O)cc1 [Example E-4, 2-[2-(4-Methoxy-phenyl)-2-oxo-ethyl]-4-(5-methyl-1H-pyrazol-3-ylamino)-2H-phthalazin-1-one]
7 | 7.00 to 9.00 | CONC(=O)c1ccc2c(Nc3cc(C)[nH]n3)nn(C(C)C)c(=O)c2c1 [Example M-4, 3-Isopropyl-1-(5-methyl-1H-pyrazol-3-ylamino)-4-oxo-3,4-dihydro-phthalazine-6-carboxylic acid methoxy-amide]
8 | 7.00 to 9.00 | Cc1cc(Nc2nn(-c3ccc(NS(C)(=O)=O)cc3)c(=O)c3ccccc23)n[nH]1 [Example T-5, N-{4-[4-(5-Methyl-1H-pyrazol-3-ylamino)-1-oxo-1H-phthalazin-2-yl]-phenyl}-methanesulfonamide]
9 | 7.00 to 9.00 | Cc1cc(Nc2nn(C(C)C)c(=O)c3cc(N(C)Cc4ccncc4)ccc23)n[nH]1 [Example I-2, 2-Isopropyl-4-(5-methyl-1H-pyrazol-3-ylamino)-7-(methyl-pyridin-4-ylmethyl-amino)-2H-phthalazin-1-one]
10 | 7.00 to 9.00 | COc1ccc2c(Nc3cc(C)[nH]n3)nn(Cc3ccccc3)c(=O)c2c1 [Example G-8, 2-Benzyl-7-methoxy-4-(5-methyl-1H-pyrazol-3-ylamino)-2H-phthalazin-1-one]
11 | 7.00 to 9.00 | Cc1cc(Nc2nn(C(C)C)c(=O)c3cc(C(=O)O)ccc23)n[nH]1 [Example M-1, 3-Isopropyl-1-(5-methyl-1H-pyrazol-3-ylamino)-4-oxo-3,4-dihydro-phthalazine-6-carboxylic acid]
12 | 7.00 to 9.00 | CC(=O)N(C)c1ccc2c(Nc3cc(C)[nH]n3)nn(C(C)C)c(=O)c2c1 [Example I-5, N-[3-Isopropyl-1-(5-methyl-1H-pyrazol-3-ylamino)-4-oxo-3,4-dihydro-phthalazin-6-yl]-N-methyl-acetamide]
13 | 7.00 to 9.00 | Cc1cc(Nc2nn(C(C)C)c(=O)c3cc(CN4CCN(C)CC4)ccc23)n[nH]1 [Example L-1, 2-Isopropyl-7-(4-methyl-piperazin-1-ylmethyl)-4-(5-methyl-1H-pyrazol-3-ylamino)-2H-phthalazin-1-one]
14 | 7.00 to 9.00 | Cc1cc(Nc2nn(C(C)C)c(=O)c3ccccc23)n[nH]1 [Example A-23, 2-Isopropyl-4-(5-methyl-1H-pyrazol-3-ylamino)-2H-phthalazin-1-one]
15 | 6.00 to 7.00 | Cc1ccc(-n2nc(Nc3cc[nH]n3)c3ccccc3c2=O)cc1 [Example A-10, 4-(1H-Pyrazol-3-ylamino)-2-p-tolyl-2H-phthalazin-1-one]
16 | 7.00 to 9.00 | Cc1cc(Nc2nn(C(C)C)c(=O)c3cc(N(C)C)ccc23)n[nH]1 [Example F-6, 2-Isopropyl-4-(5-methyl-1H-pyrazol-3-ylamino)-7-dimethylamino-2H-phthalazin-1-one]
17 | 7.00 to 9.00 | Cc1cc(Nc2nn(Cc3cccc(C(=O)O)c3)c(=O)c3ccccc23)n[nH]1 [Example A-24, 3-[4-(5-Methyl-1H-pyrazol-3-ylamino)-1-oxo-1H-phthalazin-2-ylmethyl]-benzoic acid]
18 | 7.00 to 9.00 | Cc1cc(Nc2nn(-c3ccc(-c4ccccc4C)cc3)c(=O)c3ccccc23)n[nH]1 [Example Q-2, 2-(2′-Methyl-biphenyl-4-yl)-4-(5-methyl-1H-pyrazol-3-ylamino)-2H-phthalazin-1-one]
19 | 6.00 to 7.00 | Cc1cc(Nc2nn(C(C)C)c(=O)c3ccc(N(C)C)cc23)n[nH]1 [Example F-7, 2-Isopropyl-4-(5-methyl-1H-pyrazol-3-ylamino)-6-dimethylamino-2H-phthalazin-1-one]
20 | 6.00 to 7.00 | COCC(C)n1nc(Nc2cc(C)n[nH]2)c2ccccc2c1=O (stereo not drawn) [Example O-2, 2-(2-Methoxy-1-methyl-ethyl)-4-(5-methyl-2H-pyrazol-3-ylamino)-2H-phthalazin-1-one]
21 | 6.00 to 7.00 | CC(=O)Nc1ccc(-n2nc(Nc3cc(C)[nH]n3)c3ccccc3c2=O)cc1 [Example T-1, N-{4-[4-(5-Methyl-1H-pyrazol-3-ylamino)-1-oxo-1H-phthalazin-2-yl]-phenyl}-acetamide]
22 | 7.00 to 9.00 | Cc1cc(Nc2nn(-c3ccc(F)cc3)c(=O)c3ccccc23)n[nH]1 [Example A-7, 2-(4-Fluoro-phenyl)-4-(5-methyl-1H-pyrazol-3-ylamino)-2H-phthalazin-1-one]
23 | 7.00 to 9.00 | COc1ccc(-n2nc(Nc3cc(C)[nH]n3)c3ccccc3c2=O)cc1 [Example A-9, 2-(4-Methoxy-phenyl)-4-(5-methyl-1H-pyrazol-3-ylamino)-2H-phthalazin-1-one]
24 | 7.00 to 9.00 | CNc1ccc2c(Nc3cc(C)[nH]n3)nn(C(C)C)c(=O)c2c1 [Example I-12, 2-Isopropyl-7-methylamino-4-(5-methyl-1H-pyrazol-3-ylamino)-2H-phthalazin-1-one]
25 | 7.00 to 9.00 | Cc1cc(Nc2nn(C(C)C)c(=O)c3cc(S(C)(=O)=O)ccc23)n[nH]1 [Example H-2, 2-Isopropyl-7-methanesulfonyl-4-(5-methyl-1H-pyrazol-3-ylamino)-2H-phthalazin-1-one]
26 | 7.00 to 9.00 | Cc1cc(Nc2nn(-c3cccc(C(C)(C)C)c3)c(=O)c3ccccc23)n[nH]1 [Example X-2, 2-(3-tert-Butyl-phenyl)-4-(5-methyl-1H-pyrazol-3-ylamino)-2H-phthalazin-1-one]
27 | 6.00 to 7.00 | Cc1cc(Nc2nn(-c3ccc(C(F)(F)F)cc3Cl)c(=O)c3ccccc23)n[nH]1 [Example W-1, 2-(2-Chloro-4-trifluoromethyl-phenyl)-4-(5-methyl-1H-pyrazol-3-ylamino)-2H-phthalazin-1-one]
28 | 7.00 to 9.00 | CCOC(=O)Nc1ccc(-n2nc(Nc3cc(C)[nH]n3)c3ccccc3c2=O)cc1 [Example Y-2, {4-[4-(5-Methyl-1H-pyrazol-3-ylamino)-1-oxo-1H-phthalazin-2-yl]-phenyl}-carbamic acid ethyl ester]
29 | 7.00 to 9.00 | Cc1cc(Nc2nn(-c3ccc4ccccc4c3)c(=O)c3ccccc23)n[nH]1 [Example R-3, 4-(5-Methyl-1H-pyrazol-3-ylamino)-2-naphthalen-2-yl-2H-phthalazin-1-one]
30 | 7.00 to 9.00 | Cc1cc(Nc2nn(Cc3cccnc3)c(=O)c3ccccc23)[nH]n1 [Example A-18, 4-(5-Methyl-2H-pyrazol-3-ylamino)-2-pyridin-3-ylmethyl-2H-phthalazin-1-one]
